These are literature values, as cited in patent US11878071B2, “Product for dyeing keratinous material, containing aminosilicone, a chromophoric compound, preservative and a fatty constituent” (Henkel AG & Co. KGaA, priority 2019, dated 2024).

For this series the following is noted: 25° C.

Consider `O=C([O-])C1=NN(c2ccc(S(=O)(=O)[O-])cc2)C(=O)C1N=Nc1ccc(S(=O)(=O)[O-])cc1.[Na+].[Na+].[Na+]` (centres unmarked) [Acid Yellow 23, trisodium salt of 4,5-dihydro-5-oxo-1-(4-sulfophenyl)-4-((4-sulfophenyl)azo)-1H-pyrazole-3-carboxylic acid], for which the “solubility in water” value was “highly soluble in water”.
As for `Nc1cc(S(=O)(=O)[O-])cc2cc(S(=O)(=O)[O-])c(N=Nc3ccccc3)c(O)c12.[Na+].[Na+]` [Acid Red 33, diantrium salt of 5-amino-4-hydroxy-3-(phenylazo)-naphthalene-2,7-disulphonate], the solubility in water is 2500 µg/mL.
Consider `CCN(Cc1cccc(S(=O)(=O)[O-])c1)c1ccc(C(=C2C=CC(=[N+](CC)Cc3cccc(S(=O)(=O)[O-])c3)C=C2)c2ccccc2S(=O)(=O)[O-])cc1.[Na+].[Na+]` [Acid Blue 9], for which the solubility in water result is “more than 20 % by weight”.
Consider `O=C([O-])c1c(Cl)c(Cl)c(Cl)c(Cl)c1-c1c2c(Br)cc(=O)c(Br)c-2oc2c(Br)c(O)cc(Br)c12.O=C([O-])c1c(Cl)c(Cl)c(Cl)c(Cl)c1-c1c2c(Br)cc(=O)c(Br)c-2oc2c(Br)c(O)cc(Br)c12.[Na+].[Na+]` [Acid Red 92, disodium salt of 3,4,5,6-tetrachloro-2-(1,4,5,8-tetrabromo-6-hydroxy-3-oxoxanthen-9-yl)benzoic acid], for which the solubility in water result is on record as “greater than 10 g/L”.
Consider `O=S(=O)([O-])c1ccc(N=Nc2c(O)ccc3ccccc23)cc1.[Na+]` [Acid Orange 7, sodium salt of 4-[(2-hydroxy-1-naphthyl)azo]benzene sulphonate], for which the solubility in water result is given as “more than 7 g/L”.
